Oligonucleotides are written 5' to 3', each unit as a sugar letter and its base; * is a phosphorothioate linkage, no mark a phosphodiester; rarer units and linkages stand in square brackets, end groups in braces. Plain capitals give the bases only. d = 2'-deoxy (DNA)
Experiments:
Test in all cases: Relative colony forming efficiency (Example 17, Table 13)
Assay type in all cases: cell-based, human
[1] = system: PC-3 prostrate cell adenocarcinoma; conditions: averages of 2-8 determinations
Protocol: (§1) Colony forming efficiency was determined using standard protocols. […] The test oligonucleotides were added to cell cultures in the presence of 2.5 μg of DOTMA/DOPE (Lipofectin; Life Technologies, Inc.) for four hours. The oligonucleotide was tested at 0.2 μM unless otherwise indicated. Controls were the cultures treated with lipofectin but without the oligonucleotide. […] Surviving cells were visualized by methylene blue staining, and colonies were scored. In some experiments cell aliquots were removed from the culture and viability was determined using the trypan blue exclusion test. Results were analyzed as percent of surviving cells compared to control cells. To test the antisense effects of many of these sequences as phosphorthioate deoxyribonucleotides, they were examined in relative colony forming experiments conducted as described in Example 16 with a series of human tumour cell lines. The results (shown as % inhibition of colony forming ability) obtained with cancer cells derived from the bladder, breast, lung, colon, pancreas, prostate, liver and cervix, are shown in Table 13. The specific cell lines employed are as follows: […]

[2] = system: HepG2 hepatocellular carcinoma; conditions: averages of 2-8 determinations
Protocol: as §1

[3] = system: T24 bladder cell carcinoma; conditions: averages of 2-8 determinations
Protocol: as §1

[4] = system: HCT116 colon cell carcinoma; conditions: averages of 2-8 determinations
Protocol: as §1

[5] = system: MDA-MB-231 breast cell adenocarcinoma; conditions: averages of 2-8 determinations
Protocol: as §1

A549 lung cell carcinoma = conditions: averages of 2-8 determinations
Protocol: as §1

[6] = system: MDA PaCa-2 pancreatic cell carcinoma; conditions: MIA PaCa-2 pancreatic cell carcinoma; averages of 2-8 determinations
Protocol: as §1

Row | Substance | Reduced relative colony forming efficiency, PC-3 (% inhibition of colony forming ability) [1] | Reduced relative colony forming efficiency, HepG2 (% inhibition of colony forming ability) [2] | Reduced relative colony forming efficiency, T24 (% inhibition of colony forming ability) [3] | Reduced relative colony forming efficiency, HCT116 (% inhibition of colony forming ability) [4] | Reduced relative colony forming efficiency, MDA-MB-231 (% inhibition of colony forming ability) [5] | Reduced relative colony forming efficiency, A549 (% inhibition of colony forming ability) (A549 lung cell carcinoma) | Reduced relative colony forming efficiency, MIA PaCa-2 (% inhibition of colony forming ability) [6]
1 | TTAGAAGTCAGCATCCAAGG (antisense dT*dT*dA*dG*dA*dA*dG*dT*dC*dA*dG*dC*dA*dT*dC*dC*dA*dA*dG*dG) [AS-II-1345-20] | 89.58% | 75.42% | 51.26% | 65.7% | 94.11% | 73.1% | 77.39%
2 | ATGGAAAAAAAAAATCAGCC (antisense dA*dT*dG*dG*dA*dA*dA*dA*dA*dA*dA*dA*dA*dA*dT*dC*dA*dG*dC*dC) [AS-II-1390-20] | 76.76% | 90.21% | 61.13% | 62.18% | 66.89% | 88.31% | 82.77%
3 | GCCACAGGATAAAAACACAA (antisense dG*dC*dC*dA*dC*dA*dG*dG*dA*dT*dA*dA*dA*dA*dA*dC*dA*dC*dA*dA) [AS-II-2009-20] | 83.36% | 96.99% | 61.84% | 69.92% | 96.25% | 93.32% | 93.74%
4 | GCAAAGAAAGCCAGAACATG (antisense dG*dC*dA*dA*dA*dG*dA*dA*dA*dG*dC*dC*dA*dG*dA*dA*dC*dA*dT*dG) [AS-II-579-20] | 88.16% | 94.28% | 76.68% | 69.08% | 66.89% | 95.49% | 97.55%
5 | AS-II-218220 (antisense dC*dG*dT*dT*dG*dA*dG*dG*dA*dA*dA*dA*dT*dA*dC*dA*dG*dT*dG*dA) | 85.91% | 95.48% | 67.76% | 77.66% | 84.95% | 90.97% | 56.43%
6 | TCAGGCAAGCAAAATCACAG (antisense dT*dC*dA*dG*dG*dC*dA*dA*dG*dC*dA*dA*dA*dA*dT*dC*dA*dC*dA*dG) [AS-II-1001-20] | 85.94% | 90.36% | 86.11% | 55.58% | 82.17% | 71.36% | 64.21%
7 | GCAAAGGCTACAACACGTTC (antisense dG*dC*dA*dA*dA*dG*dG*dC*dT*dA*dC*dA*dA*dC*dA*dC*dG*dT*dT*dC) [AS-II-861-20] | 87.33% | 96.08% | 73.5% | 74.2% | 89.98% | 95.78% | 97.3%
8 | GCACATCTTCAGTTCATTTA (antisense dG*dC*dA*dC*dA*dT*dC*dT*dT*dC*dA*dG*dT*dT*dC*dA*dT*dT*dT*dA) [AS-II-1362-20] | 77.38% | 80.41% | – | 78.47% | 70.22% | 83.9% | 44.14%
9 | GAGAAATAAAATGAAACGGC (antisense dG*dA*dG*dA*dA*dA*dT*dA*dA*dA*dA*dT*dG*dA*dA*dA*dC*dG*dG*dC) [AS-II-2164-20] | 83.36% | 93.07% | 61.84% | 50.08% | 69.03% | 91.15% | 89.36%
